Measurements reported in patent publication US9388419B2 (The Regents of the University of Colorado, a body corporate, priority 2009, dated 2016).
Read-outs that look alike come from different tables or passages of the source.

How the values were obtained:
E. coli [1] = format: cell-based, Escherichia coli; conditions: strain BW25113, M9 media with the named supplement(s), aerobic; MIC of 3-HP versus M9 control without supplement
Description: (§1) For MIC evaluations, the final results are expressed in chemical agent concentrations determined by analysis of the stock solution by HPLC (i.e., see Subsection Mb).
(§2) The minimum inhibitory concentration (MIC) was determined aerobically in a 96 well-plate format. […] Media supplements were added according to levels reported in the Supplements Table, where specified. Overnight cultures of strains were grown in triplicate in 5 mL LB (with antibiotic where appropriate). A 1% (v/v) inoculum was introduced into a 5 ml culture of M9 minimal media.

[2] = test system: Yeast strains (S288C background); format: cell-based, Saccharomyces cerevisiae; conditions: anaerobic; for % Increase Over Control: increase of 3-HP MIC over S288C in SD without supplement; for Average MIC Assay Result (g/L 3-HP): MIC of 3-HP for yeast S288C in SD media with the named supplement(s)
Description: The minimum inhibitory concentration (MIC) was determined anaerobically in a 96 well-plate format. […] A 1% (v/v) inoculum was introduced into a 5 ml culture of SD minimal media without vitamins. After the cells reached mid-exponential phase, the culture was diluted to an OD600 of 0.200. The cells were further diluted 1:5 and a 10 μL aliquot was used to inoculate each well of a 96 well plate (˜10^4 cells per well) to total volume of 100 uL. […] Plates were incubated for 72 hours at 30 C. […] Plates were sealed in biobag anaerobic chambers that contained gas generators for anaerobic conditions and incubated for 72 hours at 30 C.

E. coli K12 = format: cell-based, Escherichia coli; conditions: E. coli K12, M9 minimal media supplemented with the substance (polyamines 0.1 g/L, sodium bicarbonate 20 mM), aerobic, 24 hours
Description: Overnight cultures of strains were grown in 5 ml LB (with antibiotic where appropriate) at 37° C. in a shaking incubator. A 1 v/v % was used to inoculate 10 mL of M9 minimal media. After the cells reached mid-exponential phase, the culture was diluted to an OD600 of 0.200. The cells were further diluted 1:20 and a 10 ul aliquot was used to inoculate each well (˜10^4 cells per well). […] The MIC endpoint is the lowest concentration of compound at which there was no visible growth.

B. subtilis = assay: MIC protocol B. subtilis aerobic (Common Methods, M9 media + glutamate, 24 hours); format: cell-based, Bacillus subtilis; conditions: for Avg 24 hr ΔOD600: B. subtilis 168 in M9 + glu + trp with the named supplement(s), 3HP tolerance; for % Increase Over Control: increase of 24 hr ΔOD600 over B. subtilis 168 without supplement
Description: as §1
as §2, with “Table” for “Table,”, “media+glutamate.” for “media.”

[3] = test system: Yeast strains (S288C background); format: cell-based, Saccharomyces cerevisiae; conditions: aerobic; for Average MIC Assay Result (g/L 3-HP): MIC of 3-HP for yeast S288C in SD media with the named supplement(s); for % Increase Over Control: increase of 3-HP MIC over S288C in SD without supplement
Description: The minimum inhibitory concentration (MIC) was determined aerobically in a 96 well-plate format. […] Media supplements were added according to levels reported in the Supplements Table, where specified. Overnight cultures of strains were grown in triplicate in 5 mL SD media with vitamins (Methods in Enzymology vol. 350, page 17 (2002)). A 1% (v/v) inoculum was introduced into a 5 ml culture of SD minimal media without vitamins. After the cells reached mid-exponential phase, the culture was diluted to an OD600 of 0.200. The cells were further diluted 1:5 and a 10 μL aliquot was used to inoculate each well of a 96 well plate (˜10^4 cells per well) to total volume of 100 uL. […] Plates were incubated for 72 hours at 30 C.

E. coli Mach1-T1 = assay: Minimum inhibitory concentration (MIC) of 3-HP, microaerobic, 96 well-plate, MOPS minimal media; format: cell-based, Escherichia coli; conditions: E. coli Mach1-T1, MOPS minimal media with the supplement at its optimal concentration vs unsupplemented, microaerobic, 24 hours
Description: Overnight cultures of strains were grown in 5 ml LB (with antibiotic where appropriate). A 1 v/v % was used to inoculate a 15 ml conical tube filled to the top with MOPS minimal media and capped. After the cells reached mid exponential phase, the culture was diluted to an OD600 of 0.200. The cells were further diluted 1:20 and a 10 ul aliquot was used to inoculate each well (˜10^4 cells per well).
The minimum inhibitory concentration (MIC) was determined microaerobically in a 96 well-plate format. Overnight cultures of strains were grown in 5 mL LB (with antibiotic where appropriate). A 1% (v/v) inoculum was introduced into a 15 ml culture of MOPS minimal media. After the cells reached mid-exponential phase, the culture was diluted to an OD600 of 0.200. The cells were further diluted 1:20 and a 10 μL aliquot was used to inoculate each well of a 96 well plate (˜10^4 cells per well).

E. coli [4] = format: cell-based, Escherichia coli; conditions: anaerobic; for % Increase Over Control: increase of 3-HP MIC over BW25113 in M9 without supplement; for MIC Assay Result (g/L 3-HP): MIC of 3-HP for E. coli BW25113 in M9 media with the named supplement(s), 24-hour
Description: as §1
as §2, with “anaerobically” for “aerobically”

strain BX3_0194 = assay: 3-HP production by BX3_0194 at 100-mL scale in SM3 medium, without or with 10 μg/ml cerulenin; format: cell-based, E. coli
Description: Cultures were started from freezer stocks by standard practice (Sambrook and Russell, 2001) into 50 mL of LB media plus 100 μg/mL ampicillin and grown to stationary phase overnight at 37° C. with rotation at 225 rpm. Five ml of this culture were transferred to 100 ml of SM3 media plus 40 g/L glucose, 100 μg/ml ampicillin, and 1 mM IPTG in triplicate 250-ml baffled flasks and incubated at 37° C., 225 rpm. […] Dry cell weight (DCW) is calculated as 0.33 times the measured OD600 value, based on baseline DCW to OD600 determinations. All data are the average of triplicate cultures.

SMILES: N[C@@H](Cc1ccccc1)C(=O)O [Phenylalanine (A)]
- % Increase Over Control (E. coli [1]): 17%
- % Increase Over Control [2]: 2%

SMILES: O=C([O-])O.[Na+] [sodium bicarbonate]
- Minimum inhibitory concentration (MIC) of 3-HP in supplemented media (E. coli K12): 30 mg/mL
- Avg 24 hr ΔOD600 (B. subtilis): 0.06
- % Increase Over Control (B. subtilis): 56%

SMILES: NC(=O)NCCC[C@H](N)C(=O)O [Citrulline (C)]
- % Increase Over Control (E. coli [1]): 9%
- Average MIC Assay Result (g/L 3-HP) [3]: 58 g/L
- % Increase Over Control [3]: 28%
- Average MIC Assay Result (g/L 3-HP) [2]: 97 g/L

SMILES: NNC(=O)c1ccc(O)cc1 [p-hydroxybenzoic acid hydrazide]
- MIC increase (3-HP) resulting from supplementation (E. coli Mach1-T1): 33%

SMILES: Cl.NC1CCSC1=O (stereo not drawn) [homocysteine thiolactone hydrochloride]
- MIC increase (3-HP) resulting from supplementation (E. coli Mach1-T1): 60%

SMILES: NCCCCNCCCN [Spermidine (C)]
- % Increase Over Control [2]: 60%

SMILES: O=C(O)C1=C[C@@H](O)[C@@H](O)[C@H](O)C1 [Shikimate (A)]
- % Increase Over Control (E. coli [1]): 3%
- Average MIC Assay Result (g/L 3-HP) [3]: 80 g/L
- % Increase Over Control [3]: 78%
- Average MIC Assay Result (g/L 3-HP) [2]: 60 g/L
- % Increase Over Control [2]: 60%

SMILES: N[C@@H](Cc1c[nH]c2ccccc12)C(=O)O [Tryptophan (A)]
- % Increase Over Control [3]: 20%
- % Increase Over Control [2]: 47%

SMILES: C[C@@H](O)[C@H](N)C(=O)O [Threonine (B)]
- % Increase Over Control [2]: 2%

SMILES: N[C@@H](CO)C(=O)O [Serine (B)]
- % Increase Over Control (E. coli [1]): 17%
- % Increase Over Control (E. coli [4]): 7%
- Average MIC Assay Result (g/L 3-HP) [2]: 45 g/L
- % Increase Over Control [2]: 20%

SMILES: CSCC[C@H](N)C(=O)O [Methionine]
- Avg 24 hr ΔOD600 (B. subtilis): 0.15

SMILES: NCCCCCN [Cadaverine (C)]
- % Increase Over Control [2]: 60%

SMILES: NCCC[C@H](N)C(=O)O [Ornithine(C)]
- % Increase Over Control (E. coli [1]): 9%

SMILES: Nc1nc(=O)c2c([nH]1)NC[C@@H](CNc1ccc(C(=O)N[C@@H](CCC(=O)O)C(=O)O)cc1)N2 [Tetrahydrofolate (A)]
- % Increase Over Control (E. coli [1]): 9%
- MIC Assay Result (g/L 3-HP) (E. coli [4]): 40.0 g/L
- % Increase Over Control (E. coli [4]): 33%

SMILES: C[C@@H](O)[C@H](N)C(=O)O [threonine]
- MIC increase (3-HP) resulting from supplementation (E. coli Mach1-T1): 3%

SMILES: Nc1ccc(C(=O)O)cc1 [p-aminobenzoate (A)]
- % Increase Over Control (E. coli [1]): 27%
- MIC Assay Result (g/L 3-HP) (E. coli [4]): 40.0 g/L
- % Increase Over Control (E. coli [4]): 33%

SMILES: Nc1ccc(C(=O)O)cc1 [p-aminobenzoic acid]
- MIC increase (3-HP) resulting from supplementation (E. coli Mach1-T1): 7%
- Avg 24 hr ΔOD600 (B. subtilis): 0.07
- % Increase Over Control (B. subtilis): 89%

SMILES: NCC(=O)O [Glycine (B)]
- Average MIC Assay Result (g/L 3-HP) [3]: 50 g/L
- % Increase Over Control [3]: 11%
- Average MIC Assay Result (g/L 3-HP) [2]: 60 g/L
- % Increase Over Control [2]: 60%

SMILES: N[C@@H](Cc1ccc(O)cc1)C(=O)O [tyrosine]
- MIC increase (3-HP) resulting from supplementation (E. coli Mach1-T1): 40%

SMILES: O=C(O)CC(O)(CC(=O)O)C(=O)O [Citrate]
- Avg 24 hr ΔOD600 (B. subtilis): 0.30

SMILES: O=C(O)c1cccc(O)c1O [2,3-didyroxybenzoic acid, 2,3-dihydroxybenzoic acid]
- MIC increase (3-HP) resulting from supplementation (E. coli Mach1-T1): 33%

SMILES: O=C(O)O [Bicarbonate (C)]
- % Increase Over Control (E. coli [1]): 59%
- Average MIC Assay Result (g/L 3-HP) [2]: 90 g/L
- % Increase Over Control [2]: 140%

SMILES: CC[C@H](C)[C@H](N)C(=O)O [Isoleucine (B)]
- % Increase Over Control (E. coli [1]): 17%
- Average MIC Assay Result (g/L 3-HP) [2]: 38 g/L
- % Increase Over Control [2]: 2%

SMILES: Cc1ncc(CO)c(CO)c1O.Cl [pyridoxine hydrochloride]
- MIC increase (3-HP) resulting from supplementation (E. coli Mach1-T1): 0%

SMILES: N[C@@H](Cc1ccccc1)C(=O)O [phenylalanine]
- MIC increase (3-HP) resulting from supplementation (E. coli Mach1-T1): 33%

SMILES: N[C@@H](CCO)C(=O)O [homoserine]
- MIC increase (3-HP) resulting from supplementation (E. coli Mach1-T1): 33%

SMILES: CCC(=O)C(=O)O [oxobutanoate]
- MIC increase (3-HP) resulting from supplementation (E. coli Mach1-T1): 7%

SMILES: N[C@@H](CC(=O)O)C(=O)O [Aspartate]
- % Increase Over Control [3]: 26%

SMILES: NC(=O)CC[C@H](N)C(=O)O [Glutamine(C)]
- % Increase Over Control (E. coli [1]): 9%

SMILES: NCCCC[C@H](N)C(=O)O [Lysine (D)]
- % Increase Over Control (E. coli [1]): 33%
- % Increase Over Control (E. coli [4]): 39%
- Average MIC Assay Result (g/L 3-HP) [2]: 45 g/L
- % Increase Over Control [2]: 20%

SMILES: N[C@@H](Cc1c[nH]c2ccccc12)C(=O)O [tryptophan]
- MIC increase (3-HP) resulting from supplementation (E. coli Mach1-T1): 33%

SMILES: CCC(=O)C(=O)O [2-oxobutyrate (B)]
- Average MIC Assay Result (g/L 3-HP) [3]: 50 g/L
- % Increase Over Control [3]: 11%
- Average MIC Assay Result (g/L 3-HP) [2]: 38 g/L
- % Increase Over Control [2]: 2%

SMILES: C/C=C/C/C=C/CCC(=O)[C@H]1O[C@H]1C(N)=O [cerulenin]
- 3HP (strain BX3_0194; 4 hr): 0.003 g/L
- 3HP (strain BX3_0194; 6 hr): 0.14 g/L
- 3HP (strain BX3_0194; 8 hr): 0.43 g/L
- 3HP (strain BX3_0194; 24 hr): 1.43 g/L

SMILES: NC(CCS)C(=O)O (stereo not drawn) [Homocysteine (B)]
- % Increase Over Control (E. coli [1]): 9%
- Average MIC Assay Result (g/L 3-HP) [2]: 40 g/L
- % Increase Over Control [2]: 7%
